Source: ChEMBL document CHEMBL1201862, “PubChem BioAssay data set” (2004)
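In this assay, cells in 96-well plates receive the compound at five concentrations for 48 hours. Endpoints are linearly interpolated between the surrounding concentrations. GI50: concentration for 50% inhibition of growth.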 Active and inactive are the calls of the source. Rule as the data show it: active = GI50 up to about 1.1 µM and inactive = higher.

How the values were obtained:
Experiment in all cases: NCI anticancer screen, dose series, 48 h
[1] = test system: 786-0
[2] = test system: A498
[3] = test system: A549
[4] = test system: ACHN
[5] = test system: BT-549
[6] = test system: CAKI-1
[7] = test system: CCRF-CEM
[8] = test system: COLO 205
[9] = test system: DU-145
[10] = test system: EKVX
[11] = test system: HCC 2998
[12] = test system: HCT-116
[13] = test system: HCT-15
[14] = test system: HL-60
[15] = test system: HOP-62
[16] = test system: HOP-92
[17] = test system: HT-29
[18] = test system: Hs-578T
[19] = test system: IGROV-1
[20] = test system: K562
[21] = test system: KM12
[22] = test system: LOX IMVI
[23] = test system: M14
[24] = test system: MCF7
[25] = test system: MDA-MB-231
[26] = test system: MDA-MB-435
[27] = test system: MDA-N
[28] = test system: MOLT-4
[29] = test system: Malme-3M
[30] = test system: NCI-H226
[31] = test system: NCI-H23
[32] = test system: NCI-H460
[33] = test system: NCI-H522
[34] = test system: NCI/ADR-RES
[35] = test system: OVCAR-3
[36] = test system: OVCAR-4
[37] = test system: OVCAR-5
[38] = test system: OVCAR-8
[39] = test system: PC-3
[40] = test system: RPMI-8226
[41] = test system: RXF 393
[42] = test system: SF-268
[43] = test system: SF-539
[44] = test system: SK-MEL-28
[45] = test system: SK-MEL-2
[46] = test system: SK-MEL-5
[47] = test system: SK-OV-3
[48] = test system: SN12C
[49] = test system: SNB-19
[50] = test system: SNB-75
[51] = test system: SR
[52] = test system: SW-620
[53] = test system: T47D
[54] = test system: TK-10
[55] = test system: U-251
[56] = test system: UACC-257
[57] = test system: UACC-62
[58] = test system: UO-31
[59] = test system: SF-295

Cc1cc(N)ccc1C=O
GI50 [1]: > 100 µM (inactive)
GI50 [2]: > 100 µM (inactive)
GI50 [3]: > 100 µM (inactive)
GI50 [4]: > 100 µM (inactive)
GI50 [5]: > 100 µM (inactive)
GI50 [6]: > 100 µM (inactive)
GI50 [7]: > 100 µM (inactive)
GI50 [8]: > 100 µM (inactive)
GI50 [9]: > 100 µM (inactive)
GI50 [10]: > 100 µM (inactive)
GI50 [11]: > 100 µM (inactive)
GI50 [12]: > 100 µM (inactive)
GI50 [13]: > 100 µM
GI50 [14]: > 100 µM (inactive)
GI50 [15]: > 100 µM (inactive)
GI50 [16]: > 100 µM (inactive)
GI50 [17]: > 100 µM (inactive)
GI50 [18]: > 100 µM (inactive)
GI50 [19]: > 100 µM (inactive)
GI50 [20]: > 100 µM (inactive)
GI50 [21]: > 100 µM (inactive)
GI50 [22]: > 100 µM (inactive)
GI50 [23]: > 100 µM (inactive)
GI50 [24]: > 100 µM (inactive)
GI50 [25]: > 100 µM (inactive)
GI50 [26]: > 100 µM (inactive)
GI50 [27]: > 100 µM (inactive)
GI50 [28]: > 100 µM (inactive)
GI50 [29]: > 100 µM (inactive)
GI50 [30]: > 100 µM (inactive)
GI50 [31]: > 100 µM (inactive)
GI50 [32]: > 100 µM (inactive)
GI50 [33]: > 100 µM (inactive)
GI50 [34]: > 100 µM (inactive)
GI50 [35]: > 100 µM (inactive)
GI50 [36]: > 100 µM (inactive)
GI50 [37]: > 100 µM (inactive)
GI50 [38]: > 100 µM (inactive)
GI50 [39]: > 100 µM (inactive)
GI50 [40]: > 100 µM (inactive)
GI50 [41]: > 100 µM (inactive)
GI50 [42]: > 100 µM (inactive)
GI50 [43]: > 100 µM (inactive)
GI50 [44]: > 100 µM (inactive)
GI50 [45]: > 100 µM (inactive)
GI50 [46]: > 100 µM (inactive)
GI50 [47]: > 100 µM (inactive)
GI50 [48]: > 100 µM (inactive)
GI50 [49]: > 100 µM (inactive)
GI50 [50]: > 100 µM (inactive)
GI50 [51]: > 100 µM (inactive)
GI50 [52]: > 100 µM (inactive)
GI50 [53]: > 100 µM (inactive)
GI50 [54]: > 100 µM (inactive)
GI50 [55]: > 100 µM (inactive)
GI50 [56]: > 100 µM (inactive)
GI50 [57]: > 100 µM (inactive)
GI50 [58]: > 100 µM (inactive)

CCCCCCCCCCCCC1N=C(N)N2CCCC2=C1C(=O)OC (stereo not drawn)
GI50 [1]: 1.74 µM (inactive)
GI50 [2]: 22.6 µM (inactive)
GI50 [3]: 8.67 µM (inactive)
GI50 [4]: 5.38 µM (inactive)
GI50 [5]: 10.9 µM (inactive)
GI50 [6]: 3.24 µM (inactive)
GI50 [7]: 1.61 µM (inactive)
GI50 [8]: 1.95 µM (inactive)
GI50 [9]: 8.07 µM (inactive)
GI50 [10]: 14.7 µM (inactive)
GI50 [11]: 1.84 µM (inactive)
GI50 [12]: 1.73 µM (inactive)
GI50 [13]: 1.79 µM
GI50 [14]: 1.85 µM (inactive)
GI50 [15]: 4.24 µM (inactive)
GI50 [16]: 4.35 µM (inactive)
GI50 [17]: 1.67 µM (inactive)
GI50 [18]: 2.25 µM (inactive)
GI50 [19]: 3.22 µM (inactive)
GI50 [20]: 1.38 µM (inactive)
GI50 [21]: 1.98 µM (inactive)
GI50 [22]: 1.51 µM (inactive)
GI50 [23]: 1.73 µM (inactive)
GI50 [24]: 1.77 µM (inactive)
GI50 [25]: 1.9 µM (inactive)
GI50 [26]: 1.86 µM (inactive)
GI50 [27]: 1.95 µM (inactive)
GI50 [28]: 1.47 µM (inactive)
GI50 [29]: 1.8 µM (inactive)
GI50 [30]: 19.1 µM (inactive)
GI50 [31]: 2.26 µM (inactive)
GI50 [32]: 1.79 µM (inactive)
GI50 [33]: 1.76 µM (inactive)
GI50 [34]: 5.92 µM (inactive)
GI50 [35]: 2.14 µM (inactive)
GI50 [36]: 2.31 µM (inactive)
GI50 [37]: 6.25 µM (inactive)
GI50 [38]: 2.49 µM (inactive)
GI50 [39]: 1.62 µM (inactive)
GI50 [40]: 1.82 µM (inactive)
GI50 [41]: 47.8 µM (inactive)
GI50 [42]: 3.44 µM (inactive)
GI50 [59]: 1.78 µM (inactive)
GI50 [43]: 5.41 µM (inactive)
GI50 [44]: 1.69 µM (inactive)
GI50 [45]: 2.32 µM (inactive)
GI50 [46]: 2.42 µM (inactive)
GI50 [47]: 8.49 µM (inactive)
GI50 [48]: 2.75 µM (inactive)
GI50 [49]: 1.8 µM (inactive)
GI50 [50]: 1.54 µM (inactive)
GI50 [51]: 2.13 µM (inactive)
GI50 [52]: 1.7 µM (inactive)
GI50 [53]: 1.69 µM (inactive)
GI50 [54]: 7.62 µM (inactive)
GI50 [55]: 1.65 µM (inactive)
GI50 [56]: 1.86 µM (inactive)
GI50 [57]: 1.74 µM (inactive)
GI50 [58]: 8.26 µM (inactive)

CC(C)(C)N1C(=O)c2ccccc2C1(O)C(F)(F)F (stereo not drawn)
GI50 [1]: > 100 µM (inactive)
GI50 [2]: > 100 µM (inactive)
GI50 [3]: > 100 µM (inactive)
GI50 [4]: > 100 µM (inactive)
GI50 [5]: > 100 µM (inactive)
GI50 [6]: > 100 µM (inactive)
GI50 [7]: > 100 µM (inactive)
GI50 [8]: > 100 µM (inactive)
GI50 [9]: > 100 µM (inactive)
GI50 [10]: 64 µM (inactive)
GI50 [11]: > 100 µM (inactive)
GI50 [12]: > 100 µM (inactive)
GI50 [13]: > 100 µM
GI50 [14]: > 100 µM (inactive)
GI50 [15]: > 100 µM (inactive)
GI50 [16]: > 100 µM (inactive)
GI50 [17]: > 100 µM (inactive)
GI50 [18]: 24 µM (inactive)
GI50 [19]: 74 µM (inactive)
GI50 [20]: 20.5 µM (inactive)
GI50 [21]: > 100 µM (inactive)
GI50 [22]: > 100 µM (inactive)
GI50 [23]: > 100 µM (inactive)
GI50 [24]: > 100 µM (inactive)
GI50 [25]: > 100 µM (inactive)
GI50 [26]: > 100 µM (inactive)
GI50 [27]: 84.9 µM (inactive)
GI50 [29]: 38 µM (inactive)
GI50 [30]: > 100 µM (inactive)
GI50 [31]: > 100 µM (inactive)
GI50 [32]: > 100 µM (inactive)
GI50 [33]: 64.4 µM (inactive)
GI50 [34]: > 100 µM (inactive)
GI50 [35]: > 100 µM (inactive)
GI50 [36]: > 100 µM (inactive)
GI50 [37]: > 100 µM (inactive)
GI50 [38]: > 100 µM (inactive)
GI50 [39]: 60.1 µM (inactive)
GI50 [40]: 76.6 µM (inactive)
GI50 [41]: > 100 µM (inactive)
GI50 [42]: > 100 µM (inactive)
GI50 [59]: > 100 µM (inactive)
GI50 [43]: > 100 µM (inactive)
GI50 [44]: > 100 µM (inactive)
GI50 [45]: > 100 µM (inactive)
GI50 [46]: > 100 µM (inactive)
GI50 [47]: > 100 µM (inactive)
GI50 [48]: > 100 µM (inactive)
GI50 [49]: > 100 µM (inactive)
GI50 [50]: 24.4 µM (inactive)
GI50 [51]: > 100 µM (inactive)
GI50 [52]: > 100 µM (inactive)
GI50 [53]: 53.6 µM (inactive)
GI50 [54]: > 100 µM (inactive)
GI50 [55]: > 100 µM (inactive)
GI50 [56]: > 100 µM (inactive)
GI50 [57]: > 100 µM (inactive)
GI50 [58]: > 100 µM (inactive)

CC[C@]12C=CCN3CC[C@@]4(c5cc(N=O)c(OC)cc5N(C)[C@H]4[C@@](O)(C(=O)NC(Cc4c[nH]c5ccccc45)C(=O)OC)[C@@H]1O)[C@@H]32 (stereo partly drawn)
GI50 [1]: 30 µM (inactive)
GI50 [2]: 32.4 µM (inactive)
GI50 [3]: 29.4 µM (inactive)
GI50 [4]: 18.9 µM (inactive)
GI50 [5]: 14.9 µM (inactive)
GI50 [6]: 17.9 µM (inactive)
GI50 [7]: 3.27 µM (inactive)
GI50 [8]: 15.4 µM (inactive)
GI50 [9]: 17.2 µM (inactive)
GI50 [10]: 20.9 µM (inactive)
GI50 [11]: 15.6 µM (inactive)
GI50 [12]: 12.9 µM (inactive)
GI50 [13]: 20.3 µM
GI50 [14]: 2.87 µM (inactive)
GI50 [15]: 18.2 µM (inactive)
GI50 [16]: 12.3 µM (inactive)
GI50 [17]: 14.1 µM (inactive)
GI50 [18]: 22.4 µM (inactive)
GI50 [19]: 17.7 µM (inactive)
GI50 [20]: 3.92 µM (inactive)
GI50 [21]: 12.5 µM (inactive)
GI50 [22]: 16.7 µM (inactive)
GI50 [23]: 19 µM (inactive)
GI50 [24]: 15.3 µM (inactive)
GI50 [25]: 18.3 µM (inactive)
GI50 [26]: 17.1 µM (inactive)
GI50 [27]: 20.3 µM (inactive)
GI50 [28]: 1.46 µM (inactive)
GI50 [29]: 18.6 µM (inactive)
GI50 [30]: 24.5 µM (inactive)
GI50 [31]: 17.7 µM (inactive)
GI50 [32]: 19.1 µM (inactive)
GI50 [33]: 2.64 µM (inactive)
GI50 [34]: > 100 µM (inactive)
GI50 [35]: 14.4 µM (inactive)
GI50 [36]: 15.6 µM (inactive)
GI50 [37]: 19.5 µM (inactive)
GI50 [38]: 17.5 µM (inactive)
GI50 [39]: 11.5 µM (inactive)
GI50 [41]: 12.6 µM (inactive)
GI50 [42]: 24.2 µM (inactive)
GI50 [59]: 17.1 µM (inactive)
GI50 [43]: 16.6 µM (inactive)
GI50 [44]: 31.3 µM (inactive)
GI50 [45]: 15.3 µM (inactive)
GI50 [46]: 14.8 µM (inactive)
GI50 [47]: 20.2 µM (inactive)
GI50 [48]: 26.4 µM (inactive)
GI50 [49]: 19.9 µM (inactive)
GI50 [50]: 15 µM (inactive)
GI50 [51]: 1.22 µM (inactive)
GI50 [52]: 6.93 µM (inactive)
GI50 [53]: 6.93 µM (inactive)
GI50 [54]: 17.9 µM (inactive)
GI50 [55]: 7.33 µM (inactive)
GI50 [56]: 15.1 µM (inactive)
GI50 [57]: 16 µM (inactive)
GI50 [58]: 23.1 µM (inactive)
